Test results from the NIST ThermoML archive (doi:10.1016/j.tca.2012.01.007).

Test: wn = mass fraction of the nth substance listed
Conditions: 101 kPa, Liquid, Vibrating tube method

OCCNCCO [diethanolamine] + CCO
Conditions | mass density [kg/m3]
278.14 K, w1 = 0.1 | 827.791
278.14 K, w1 = 1 | 1107.05
278.15 K, w1 = 0.1999 | 854.007
278.15 K, w1 = 0.3 | 881.862
278.15 K, w1 = 0.3999 | 910.002
278.15 K, w1 = 0.5001 | 939.811
278.15 K, w1 = 0.5998 | 970.814
278.15 K, w1 = 0.7002 | 1004.37
278.15 K, w1 = 0.8001 | 1037.46
278.15 K, w1 = 0.8417 | 1051.46
278.15 K, w1 = 0.8997 | 1071.67
283.14 K, w1 = 0.1 | 823.639
283.14 K, w1 = 0.1999 | 849.953
283.14 K, w1 = 0.3 | 877.917
283.14 K, w1 = 1 | 1103.88
283.15 K, w1 = 0.3999 | 906.254
283.15 K, w1 = 0.5001 | 936.053
283.15 K, w1 = 0.5998 | 967.135
283.15 K, w1 = 0.7002 | 1000.78
283.15 K, w1 = 0.8001 | 1034
283.15 K, w1 = 0.8417 | 1048.09
283.15 K, w1 = 0.8997 | 1068.38
293.14 K, w1 = 0.1 | 815.297
293.14 K, w1 = 0.1999 | 841.801
293.14 K, w1 = 0.3 | 869.969
293.14 K, w1 = 0.5998 | 959.776
293.14 K, w1 = 0.8997 | 1061.73
293.15 K, w1 = 0.3999 | 898.495
293.15 K, w1 = 0.5001 | 928.504
293.15 K, w1 = 0.7002 | 993.608
293.15 K, w1 = 0.8001 | 1027.03
293.15 K, w1 = 0.8417 | 1041.24
293.15 K, w1 = 1 | 1097.51
303.14 K, w1 = 0.1 | 806.876
303.14 K, w1 = 0.3 | 861.949
303.14 K, w1 = 1 | 1091.06
303.15 K, w1 = 0.1999 | 833.564
303.15 K, w1 = 0.3999 | 890.674
303.15 K, w1 = 0.5001 | 920.9
303.15 K, w1 = 0.5998 | 952.376
303.15 K, w1 = 0.7002 | 986.404
303.15 K, w1 = 0.8001 | 1020.01
303.15 K, w1 = 0.8417 | 1034.3
303.15 K, w1 = 0.8997 | 1054.97
313.14 K, w1 = 0.1 | 798.332
313.14 K, w1 = 0.3 | 853.824
313.14 K, w1 = 1 | 1084.49
313.15 K, w1 = 0.1999 | 825.235
313.15 K, w1 = 0.3999 | 882.762
313.15 K, w1 = 0.5001 | 913.212
313.15 K, w1 = 0.5998 | 944.908
313.15 K, w1 = 0.7002 | 979.15
313.15 K, w1 = 0.8001 | 1012.95
313.15 K, w1 = 0.8417 | 1027.32
313.15 K, w1 = 0.8997 | 1048.11
323.14 K, w1 = 0.1 | 789.624
323.14 K, w1 = 0.1999 | 816.75
323.14 K, w1 = 0.3 | 845.563
323.14 K, w1 = 0.7002 | 971.82
323.14 K, w1 = 1 | 1077.78
323.15 K, w1 = 0.3999 | 874.726
323.15 K, w1 = 0.5998 | 937.339
323.15 K, w1 = 0.8001 | 1005.75
323.15 K, w1 = 0.8417 | 1020.28
323.15 K, w1 = 0.8997 | 1041.21
323.16 K, w1 = 0.5001 | 905.4
333.14 K, w1 = 0.1 | 780.704
333.14 K, w1 = 0.1999 | 808.075
333.14 K, w1 = 0.3 | 837.129
333.14 K, w1 = 1 | 1071
333.15 K, w1 = 0.3999 | 866.54
333.15 K, w1 = 0.5001 | 897.474
333.15 K, w1 = 0.5998 | 929.643
333.15 K, w1 = 0.7002 | 964.37
333.15 K, w1 = 0.8001 | 998.264
333.15 K, w1 = 0.8417 | 1013.15
333.15 K, w1 = 0.8997 | 1034.23
343.14 K, w1 = 0.1 | 771.521
343.14 K, w1 = 0.1999 | 799.163
343.14 K, w1 = 0.3 | 828.477
343.14 K, w1 = 0.5001 | 889.372
343.14 K, w1 = 0.8997 | 1027.15
343.14 K, w1 = 1 | 1064.14
343.15 K, w1 = 0.3999 | 858.164
343.15 K, w1 = 0.5998 | 921.798
343.15 K, w1 = 0.7002 | 956.784
343.15 K, w1 = 0.8001 | 990.826
343.15 K, w1 = 0.8417 | 1005.84
348.14 K, w1 = 0.1 | 766.805
348.14 K, w1 = 0.1999 | 794.6
348.14 K, w1 = 0.3 | 824.049
348.14 K, w1 = 0.5998 | 917.813
348.14 K, w1 = 1 | 1060.68
348.15 K, w1 = 0.3999 | 853.893
348.15 K, w1 = 0.5001 | 885.244
348.15 K, w1 = 0.7002 | 952.934
348.15 K, w1 = 0.8001 | 987.083
348.15 K, w1 = 0.8417 | 1001.85
348.15 K, w1 = 0.8997 | 1023.57

OCCNCCO [diethanolamine] + O
Conditions | mass density [kg/m3]
283.14 K, w1 = 1 | 1103.88
283.15 K, w1 = 0.1007 | 1011.98
283.15 K, w1 = 0.2002 | 1024.98
283.15 K, w1 = 0.2997 | 1038.45
283.15 K, w1 = 0.3999 | 1052.36
283.15 K, w1 = 0.5003 | 1065.24
283.15 K, w1 = 0.6024 | 1077.85
283.15 K, w1 = 0.6999 | 1088.2
283.15 K, w1 = 0.8004 | 1096.55
283.15 K, w1 = 0.8534 | 1099.73
283.15 K, w1 = 0.8995 | 1101.58
283.16 K, w1 = 0.9316 | 1102.57
283.16 K, w1 = 0.9591 | 1103.24
293.14 K, w1 = 0.8995 | 1095.4
293.15 K, w1 = 0.1007 | 1010.01
293.15 K, w1 = 0.2002 | 1022.35
293.15 K, w1 = 0.2997 | 1035.07
293.15 K, w1 = 0.3999 | 1048.19
293.15 K, w1 = 0.5003 | 1060.32
293.15 K, w1 = 0.6024 | 1072.33
293.15 K, w1 = 0.6999 | 1082.23
293.15 K, w1 = 0.8004 | 1090.42
293.15 K, w1 = 0.8534 | 1093.59
293.15 K, w1 = 0.9316 | 1096.37
293.15 K, w1 = 0.9591 | 1096.98
293.15 K, w1 = 1 | 1097.51
303.14 K, w1 = 0.6024 | 1066.59
303.14 K, w1 = 0.6999 | 1076.15
303.14 K, w1 = 0.8995 | 1089.06
303.14 K, w1 = 1 | 1091.06
303.15 K, w1 = 0.2002 | 1018.95
303.15 K, w1 = 0.2997 | 1031.08
303.15 K, w1 = 0.3999 | 1043.56
303.15 K, w1 = 0.8004 | 1084.12
303.15 K, w1 = 0.8534 | 1087.26
303.15 K, w1 = 0.9316 | 1090.01
303.15 K, w1 = 0.9591 | 1090.59
303.16 K, w1 = 0.1007 | 1007.1
303.16 K, w1 = 0.5003 | 1055.09
313.14 K, w1 = 0.6024 | 1060.6
313.14 K, w1 = 0.8004 | 1077.72
313.14 K, w1 = 1 | 1084.49
313.15 K, w1 = 0.1007 | 1003.4
313.15 K, w1 = 0.2002 | 1014.87
313.15 K, w1 = 0.3999 | 1038.5
313.15 K, w1 = 0.6999 | 1069.91
313.15 K, w1 = 0.8534 | 1080.78
313.15 K, w1 = 0.8995 | 1082.55
313.15 K, w1 = 0.9316 | 1083.49
313.15 K, w1 = 0.9591 | 1084.06
313.16 K, w1 = 0.2997 | 1026.54
313.16 K, w1 = 0.5003 | 1049.55
323.14 K, w1 = 0.5003 | 1043.69
323.14 K, w1 = 0.6024 | 1054.36
323.14 K, w1 = 1 | 1077.78
323.15 K, w1 = 0.1007 | 999.014
323.15 K, w1 = 0.2002 | 1010.18
323.15 K, w1 = 0.6999 | 1063.49
323.15 K, w1 = 0.8004 | 1071.18
323.15 K, w1 = 0.8534 | 1074.21
323.15 K, w1 = 0.8995 | 1075.95
323.15 K, w1 = 0.9316 | 1076.86
323.15 K, w1 = 0.9591 | 1077.4
323.16 K, w1 = 0.2997 | 1021.47
323.16 K, w1 = 0.3999 | 1033.03
333.14 K, w1 = 0.8995 | 1069.24
333.14 K, w1 = 1 | 1071
333.15 K, w1 = 0.1007 | 994.007
333.15 K, w1 = 0.2002 | 1004.93
333.15 K, w1 = 0.2997 | 1015.93
333.15 K, w1 = 0.3999 | 1027.17
333.15 K, w1 = 0.5003 | 1037.44
333.15 K, w1 = 0.6024 | 1047.86
333.15 K, w1 = 0.6999 | 1056.8
333.15 K, w1 = 0.8534 | 1067.5
333.15 K, w1 = 0.9316 | 1070.14
333.15 K, w1 = 0.9591 | 1070.66
333.16 K, w1 = 0.8004 | 1064.48
343.14 K, w1 = 0.2997 | 1009.93
343.14 K, w1 = 0.6024 | 1041.1
343.14 K, w1 = 0.6999 | 1049.92
343.14 K, w1 = 0.8995 | 1062.39
343.14 K, w1 = 1 | 1064.14
343.15 K, w1 = 0.1007 | 988.445
343.15 K, w1 = 0.2002 | 999.169
343.15 K, w1 = 0.3999 | 1020.9
343.15 K, w1 = 0.5003 | 1030.89
343.15 K, w1 = 0.8534 | 1060.63
343.15 K, w1 = 0.9316 | 1063.3
343.15 K, w1 = 0.9591 | 1063.82
343.16 K, w1 = 0.8004 | 1057.6
353.14 K, w1 = 0.2997 | 1003.5
353.14 K, w1 = 0.5003 | 1024.01
353.14 K, w1 = 0.6999 | 1042.78
353.14 K, w1 = 0.8995 | 1055.38
353.14 K, w1 = 0.9316 | 1056.33
353.14 K, w1 = 0.9591 | 1056.87
353.15 K, w1 = 0.1007 | 982.774
353.15 K, w1 = 0.2002 | 992.938
353.15 K, w1 = 0.3999 | 1014.25
353.15 K, w1 = 0.6024 | 1034.05
353.15 K, w1 = 0.8004 | 1050.51
353.15 K, w1 = 0.8534 | 1053.58
353.15 K, w1 = 1 | 1056.83
